Source: patent US20240228504A1, “SUBSTITUTED TRICYCLIC AMIDES, ANALOGUES THEREOF, AND METHODS USING SAME” (Arbutus Biopharma Corporation, priority 2020, published 2024)

System: HBV rcDNA in HepDE19 cells
Assay: HepDE19 assay with bDNA quantitation of HBV rcDNA
Assay type: cell-based, hepatitis B virus
Conditions: Hepatitis B virus, HepDE19, HepDE19 assay, inhibition of rcDNA formation, bDNA quantitation; read-out: DE-19bDNA EC50

Row | SMILES | EC50 [nM]
1 | CN(C(=O)c1cc2cc(C(F)(F)F)cnc2[nH]1)[C@@H]1COCc2[nH]c(=O)c3cc(F)c(F)cc3c21 [Compound 214, (S)-N-(8,9-difluoro-6-oxo-1,4,5,6-tetrahydro-2H-pyrano[3,4-c]isoquinolin-1-yl)-N-methyl-5-(trifluoromethyl)-1H-pyrrolo[2,3-b]pyridine-2-carboxamide] | 1000
2 | CN(C(=O)c1c[nH]c(=O)c(Cl)c1)[C@@H]1COCc2[nH]c(=O)c3cc(F)c(F)cc3c21 [Compound 215, (S)-5-Chloro-N-(8,9-difluoro-6-oxo-1,4,5,6-tetrahydro-2H-pyrano[3,4-c]isoquinolin-1-yl)-N-methyl-6-oxo-1,6-dihydropyridine-3-carboxamide] | 20100
3 | CN(C(=O)c1ccc(Br)c(=O)[nH]1)[C@@H]1COCc2[nH]c(=O)c3cc(F)c(F)cc3c21 [Compound 216, (S)-5-Bromo-N-(8,9-difluoro-6-oxo-1,4,5,6-tetrahydro-2H-pyrano[3,4-c]isoquinolin-1-yl)-N-methyl-6-oxo-1,6-dihydropyridine-2-carboxamide] | 7300
4 | CN(C(=O)c1cc2nc(C(F)(F)F)ccc2[nH]1)[C@@H]1COCc2[nH]c(=O)c3cc(F)c(F)cc3c21 [Compound 219, (S)-N-(8,9-difluoro-6-oxo-1,4,5,6-tetrahydro-2H-pyrano[3,4-c]isoquinolin-1-yl)-N-methyl-5-(trifluoromethyl)-1H-pyrrolo[3,2-b]pyridine-2-carboxamide] | 1440
5 | CN(C(=O)c1cc2ccc(F)cn2c1)[C@@H]1COCc2[nH]c(=O)c3cc(F)c(F)cc3c21 [Compound 224, (S)-N-(8,9-Difluoro-6-oxo-1,4,5,6-tetrahydro-2H-pyrano[3,4-c]isoquinolin-1-yl)-6-fluoro-N-methylindolizine-2-carboxamide] | 10
6 | CN(C(=O)c1cnc(C(F)(F)F)[nH]1)[C@@H]1COCc2[nH]c(=O)c3cc(F)c(F)cc3c21 [Compound 225, (S)-N-(8,9-Difluoro-6-oxo-1,4,5,6-tetrahydro-2H-pyrano[3,4-c]isoquinolin-1-yl)-N-methyl-2-(trifluoromethyl)-1H-imidazole-5-carboxamide] | 13000
7 | CN(C(=O)c1c[nH]c(=O)c(F)c1)[C@@H]1COCc2[nH]c(=O)c3cc(F)c(F)cc3c21 [Compound 226, (S)-N-(8,9-Difluoro-6-oxo-1,4,5,6-tetrahydro-2H-pyrano[3,4-c]isoquinolin-1-yl)-5-fluoro-N-methyl-6-oxo-1,6-dihydropyridine-3-carboxamide] | 12500
8 | CN(C(=O)c1ccc2cccn2c1)[C@@H]1COCc2[nH]c(=O)c3cc(F)c(F)cc3c21 [Compound 227, (S)-N-(8,9-Difluoro-6-oxo-1,4,5,6-tetrahydro-2H-pyrano[3,4-c]isoquinolin-1-yl)-N-methylindolizine-6-carboxamide] | 20
9 | CN(C(=O)c1ccn2cccc2c1)[C@@H]1COCc2[nH]c(=O)c3cc(F)c(F)cc3c21 [Compound 228, (S)-N-(8,9-Difluoro-6-oxo-1,4,5,6-tetrahydro-2H-pyrano[3,4-c]isoquinolin-1-yl)-N-methylindolizine-7-carboxamide] | 60
10 | CN(C(=O)C(O)(c1ccccc1)c1ccccc1)[C@@H]1COCc2[nH]c(=O)c3cc(F)c(F)cc3c21 [Compound 229, (S)-N-(8,9-Difluoro-6-oxo-1,4,5,6-tetrahydro-2H-pyrano[3,4-c]isoquinolin-1-yl)-2-hydroxy-N-methyl-2,2-diphenylacetamide] | 8400
11 | CN(C(=O)c1cc2c(C(F)F)cc(F)cc2[nH]1)[C@@H]1COCc2[nH]c(=O)c3cc(F)c(F)cc3c21 [Compound 230, (S)-N-(8,9-Difluoro-6-oxo-1,4,5,6-tetrahydro-2H-pyrano[3,4-c]isoquinolin-1-yl)-4-(difluoromethyl)-6-fluoro-N-methyl-1H-indole-2-carboxamide] | 10
12 | CN(C(=O)c1cc2cc(F)ccn2c1)[C@@H]1COCc2[nH]c(=O)c3cc(F)c(F)cc3c21 [Compound 231, (S)-N-(8,9-Difluoro-6-oxo-1,4,5,6-tetrahydro-2H-pyrano[3,4-c]isoquinolin-1-yl)-7-fluoro-N-methylindolizine-2-carboxamide] | 10
13 | CN(C(=O)c1cc2nc(F)ccc2[nH]1)[C@@H]1COCc2[nH]c(=O)c3cc(F)c(F)cc3c21 [Compound 232, (S)-N-(8,9-Difluoro-6-oxo-1,4,5,6-tetrahydro-2H-pyrano[3,4-c]isoquinolin-1-yl)-5-fluoro-N-methyl-1H-pyrrolo[3,2-b]pyridine-2-carboxamide] | 70
14 | CN(C(=O)C1Cc2cc(F)c(F)cc2C1)[C@@H]1COCc2[nH]c(=O)c3cc(F)c(F)cc3c21 [Compound 233, (S)-N-(8,9-Difluoro-6-oxo-1,4,5,6-tetrahydro-2H-pyrano[3,4-c]isoquinolin-1-yl)-5,6-difluoro-N-methyl-2,3-dihydro-1H-indene-2-carboxamide] | 40
15 | CN(C(=O)c1cnn(-c2ccc(F)cc2)c1)[C@@H]1COCc2[nH]c(=O)c3cc(F)c(F)cc3c21 [Compound 234, (S)-N-(8,9-Difluoro-6-oxo-1,4,5,6-tetrahydro-2H-pyrano[3,4-c]isoquinolin-1-yl)-1-(4-fluorophenyl)-N-methyl-1H-pyrazole-4-carboxamide] | 10500
16 | CN(C(=O)c1cc(-c2ccc(F)cc2)no1)[C@@H]1COCc2[nH]c(=O)c3cc(F)c(F)cc3c21 [Compound 236, (S)-N-(8,9-Difluoro-6-oxo-1,4,5,6-tetrahydro-2H-pyrano[3,4-c]isoquinolin-1-yl)-3-(4-fluorophenyl)-N-methylisoxazole-5-carboxamide] | 15100
17 | CN(C(=O)c1ccc(Oc2cccc(F)c2)cc1)[C@@H]1COCc2[nH]c(=O)c3cc(F)c(F)cc3c21 [Compound 237, (S)-N-(8,9-Difluoro-6-oxo-1,4,5,6-tetrahydro-2H-pyrano[3,4-c]isoquinolin-1-yl)-4-(3-fluorophenoxy)-N-methylbenzamide] | 6900
18 | CN(C(=O)c1cc2cc(F)c(F)cc2[nH]1)[C@@H]1COCc2c1c1cc(F)c(F)cc1c(=O)n2C [Compound 240, (S)-N-(8,9-Difluoro-5-methyl-6-oxo-1,4,5,6-tetrahydro-2H-pyrano[3,4-c]isoquinolin-1-yl)-5,6-difluoro-N-methyl-1H-indole-2-carboxamide] | 10
19 | COc1nc2c(c3cc(F)c(F)cc13)[C@H](N(C)C(=O)c1cc3cc(F)c(F)cc3[nH]1)COC2 [Compound 241, (S)-N-(8,9-Difluoro-6-methoxy-1,4-dihydro-2H-pyrano[3,4-c]isoquinolin-1-yl)-5,6-difluoro-N-methyl-1H-indole-2-carboxamide] | 30
20 | CN(C(=O)c1cc2n(c1)CCCC2)[C@@H]1COCc2[nH]c(=O)c3cc(F)c(F)cc3c21 [Compound 242, (S)-N-(8,9-Difluoro-6-oxo-1,4,5,6-tetrahydro-2H-pyrano[3,4-c]isoquinolin-1-yl)-N-methyl-5,6,7,8-tetrahydroindolizine-2-carboxamide] | 110
21 | CN(C(=O)c1ccc(Br)c(F)c1F)[C@@H]1COCc2[nH]c(=O)c3cc(F)c(F)cc3c21 [Compound 244, (S)-4-Bromo-N-(8,9-difluoro-6-oxo-1,4,5,6-tetrahydro-2H-pyrano[3,4-c]isoquinolin-1-yl)-2,3-difluoro-N-methylbenzamide] | 80
22 | CN(C(=O)c1cc(F)c(Br)cc1F)[C@@H]1COCc2[nH]c(=O)c3cc(F)c(F)cc3c21 [Compound 245, (S)-4-Bromo-N-(8,9-difluoro-6-oxo-1,4,5,6-tetrahydro-2H-pyrano[3,4-c]isoquinolin-1-yl)-2,5-difluoro-N-methylbenzamide] | 170
23 | CN(C(=O)c1c(F)cc(Br)cc1F)[C@@H]1COCc2[nH]c(=O)c3cc(F)c(F)cc3c21 [Compound 246, (S)-4-Bromo-N-(8,9-difluoro-6-oxo-1,4,5,6-tetrahydro-2H-pyrano[3,4-c]isoquinolin-1-yl)-2,6-difluoro-N-methylbenzamide] | 1960
24 | CN(C(=O)c1ccc(C(F)(F)F)c(=O)[nH]1)[C@@H]1COCc2[nH]c(=O)c3cc(F)c(F)cc3c21 [Compound 247, (S)-N-(8,9-Difluoro-6-oxo-1,4,5,6-tetrahydro-2H-pyrano[3,4-c]isoquinolin-1-yl)-N-methyl-6-oxo-5-(trifluoromethyl)-1,6-dihydropyridine-2-carboxamide] | 3870
25 | CN(C(=O)c1ccc2ccccn12)[C@@H]1COCc2[nH]c(=O)c3cc(F)c(F)cc3c21 [Compound 248, (S)-N-(8,9-Difluoro-6-oxo-1,4,5,6-tetrahydro-2H-pyrano[3,4-c]isoquinolin-1-yl)-N-methylindolizine-3-carboxamide] | 5380
26 | CN(C(=O)c1ccc(-c2ccc(F)cc2)cc1)[C@@H]1COCc2[nH]c(=O)c3cc(F)c(F)cc3c21 [Compound 250, (S)-N-(8,9-Difluoro-6-oxo-1,4,5,6-tetrahydro-2H-pyrano[3,4-c]isoquinolin-1-yl)-4′-fluoro-N-methyl-[1,1′-biphenyl]-4-carboxamide] | 8100
27 | CN(C(=O)c1cc2cc(C(F)(F)F)ncc2[nH]1)[C@@H]1COCc2[nH]c(=O)c3cc(F)c(F)cc3c21 [Compound 251, (S)-N-(8,9-difluoro-6-oxo-1,4,5,6-tetrahydro-2H-pyrano[3,4-c]isoquinolin-1-yl)-N-methyl-5-(trifluoromethyl)-1H-pyrrolo[2,3-c]pyridine-2-carboxamide] | 230
28 | CN(C(=O)C(F)(F)c1cccc(Br)c1)[C@@H]1COCc2[nH]c(=O)c3cc(F)c(F)cc3c21 [Compound 252, (S)-2-(3-Bromophenyl)-N-(8,9-difluoro-6-oxo-1,4,5,6-tetrahydro-2H-pyrano[3,4-c]isoquinolin-1-yl)-2,2-difluoro-N-methylacetamide] | 7700
29 | CN(C(=O)C(F)(F)c1ccc(Br)cc1)[C@@H]1COCc2[nH]c(=O)c3cc(F)c(F)cc3c21 [Compound 253, (S)-2-(4-Bromophenyl)-N-(8,9-difluoro-6-oxo-1,4,5,6-tetrahydro-2H-pyrano[3,4-c]isoquinolin-1-yl)-2,2-difluoro-N-methylacetamide] | 8000
